Values of other authors, collected in patent publication US20100221356A1, “PHARMACEUTICAL COMPOSITION FOR ONCE A DAY ADMINISTRATION OF TROSPIUM CHLORIDE” (SUPERNUS PHARMACEUTICALS, INC., priority 2003, published 2010).

How the values were obtained:
[1] = water
[2] = 40 mg immediate release dose once daily compared to 20 mg given twice daily

With `O=C(O[C@H]1C[C@H]2CC[C@@H](C1)[N+]21CCCC1)C(O)(c1ccccc1)c1ccccc1` [Trospium chloride] as the molecule, how does the saturation solubility [1] read?
The saturation solubility was 500 mg/mL.

And the oral bioavailability (oral)?
Its oral bioavailability is “approximately 10%”.

And the “oral bioavailability with the intake of high-fat food” value (oral, high-fat food)?
Its value is “significantly reduced”.

What about the “time to maximum blood level” value (orally administered) of the same molecule?
Its value is 5 to 6 h.

What about the “overall incidence of adverse events” value [2] of the same molecule?
Its value is “higher overall incidence of adverse events”.
